Test results as given in US20240122879A1, “COMPOSITIONS AND METHODS FOR TREATING OCULAR CHEMICAL BURNS” (OHIO STATE INNOVATION FOUNDATION, priority 2022, published 2024).

Key:
Assay type in all cases: cell-based, mouse
mCEC [1] = assay: Scratch wound assay of mCECs treated with recombinant cytokines; conditions: recombinant proteins, FIG. 4A, 4B
Protocol: (§1) Recombinant pro-IL-1β and pro-IL-18 proteins were generated from E. coli. The proteins were treated with caspase 1 to obtain the active forms.
The coding sequences of human pro-IL-18 and pro-IL-1β were cloned into the PET28a vector, where an N-terminal 6xHis tag is added. The purification procedure is similar to the published protocol with minor modifications (Ramirez, et al. J Biol Chem. 2018 293(18): 7058-7067). Briefly, the respective plasmid was transformed into BL21 […] chemically competent cells. A single colony was picked to grow in LB media at 37° C. until OD600 researched 0.6, and 0.5 mM IPTG was used for overnight induction at ˜16° C. Harvested cells were collected by centrifugation, followed by resuspension in 50 mM Hepes (pH 7.5), 5 mM MgCl2, 1 mM PMSF, ˜0.5 mg/ml lysozyme and 50-100 U DNase I. After sonication, the cell lysates were centrifuged. The supernatant was then applied to a Ni-NTA affinity chromatography, where buffer A contained 50 mM Hepes (pH 7.5) and Buffer B contained an extra 500 mM imidazole. Fractions with the highest purities were pooled and applied to a diethylaminoethyl-cellulos (DEAE) ion exchange chromatography, where buffer A′ contained 50 mM Hepes (pH 7.5) and Buffer B′ contained an extra 500 mM NaCl. As judged by SDS PAGE, fractions with >95% purity were pooled and dialyzed in 50 mM Hepes (pH 7.5) and 100 mM NaCl.
Recombinant human caspase-1 was purchased from Enzo Life Sciences (ALX-201-056). The cleavage of pro-IL-18 or pro-IL-1β was performed at 37° C. in PBS buffer containing 2 mM DTT.
To induce cellular migration, an in vitro scratch test was performed using mCECs. Cells were treated with dissected corneas or cytokines when they reached confluence, were subsequently scratched with a micropipette tip, and incubated for up to 12 hrs. Images were taken at 0, 3, 6, and 9 hours after the initial scratch. Images of wound closure were quantified by using ImageJ software.

corneal epithelial cells = assay: ZO-1 staining of corneal epithelial cells treated with recombinant proteins; conditions: FIG. 4D, 4E
Protocol: as §1

mCEC [2] = assay: Transepithelial electrical resistance (TEER) of mCEC treated with recombinant proteins; conditions: FIG. 4C
Protocol: as §1
mCEC were seeded in transwell inserts (2×10^5 per well) and allowed to become confluent. For the protein treatment, proteins were added into the culture medium 16 or 4 hours before measurement; the EVOM2 instrument was used to measure the TEER. For the co-culture experiments, mCEC were seeded in the transwell inserts and allowed to become confluent. The isolated primary neutrophils were then seeded into 24 well plates and the EVOM2 instrument was used to measure the TEER at 24 hr.

Substance | mCEC wound closure / migration (mCEC [1]) | tight junctions by ZO-1 staining (corneal epithelial cells) | epithelial tight junctions / electrical resistance by TEER (mCEC [2]) | further results
pro-IL-18: recombinant pro-IL-18 protein generated from E. coli, used as control | failed to alter mCEC migration | – | – | –
active IL-18: recombinant human pro-IL-18 from E. coli treated with caspase 1 to obtain the active form | significantly delayed mCEC wound closure | disrupted epithelial cell tight junctions | disrupted epithelial cell tight junctions | mCEC wound closure / migration (mCEC [1]; listed as activated IL-18): significantly suppress corneal epithelial cell migration; tight junctions by ZO-1 staining (corneal epithelial cells; listed as activated IL-18): tight junction was disrupted; epithelial tight junctions / electrical resistance by TEER (mCEC [2]; listed as activated IL-18): significantly reduce the electrical resistance
boiled IL-1β: boiled recombinant IL-1β protein used as control | failed to alter mCEC migration | – | – | –
pro-IL-1β: recombinant pro-IL-1β protein generated from E. coli, used as control | failed to alter mCEC migration | – | – | –
boiled IL-18: boiled recombinant IL-18 protein used as control | failed to alter mCEC migration | – | – | –
active IL-1β: recombinant human pro-IL-1β from E. coli treated with caspase 1 to obtain the active form | significantly delayed mCEC wound closure | disrupted epithelial cell tight junctions | disrupted epithelial cell tight junctions | mCEC wound closure / migration (mCEC [1]; listed as activated IL-1β): significantly suppress corneal epithelial cell migration; tight junctions by ZO-1 staining (corneal epithelial cells; listed as activated IL-1β): tight junction was disrupted; epithelial tight junctions / electrical resistance by TEER (mCEC [2]; listed as activated IL-1β): significantly reduce the electrical resistance
